Values quoted from earlier work, collected in US11213557B2, “Lactobacillus plantarum CCFM1019, fermented foods thereof, and application thereof in preparation of medicine for promoting excretion of plasticizers and metabolites thereof from body” (priority 2018, dated 2022).

[1] = human body, 24 h after DEHP enters the body

Question: Which Half-life (DEHP stored in adipose tissue) does the source give for `CCCCC(CC)COC(=O)c1ccccc1C(=O)OCC(CC)CCCC` (centres unmarked) [DEHP, bis(2-ethylhexyl) phthalate] here?
Answer: The Half-life was 156 h.

Question: And the “Absorption and distribution period” value (human body)?
Answer: Its value is 4 to 8 h.

Question: What about the “Time within which most of the DEHP is completely metabolized” value (human body) of the same compound?
Answer: Its value is ≤ 24 h.

Question: What about the “DEHP converted into five secondary metabolites and excreted in urine” value [1] of the same compound?
Answer: The value was “about 67%”.

Question: What about the “DEHP directly excreted in urine” value [1] of the same compound?
Answer: The value was “less than 10%”.
